{"source": "patent US8828982B2", "about": "“Pyrimidine derivatives for the prevention of HIV infection” (Janssen Pharmaceutica N.V., priority 2003, dated 2014)", "format_in_all_cases": "cell-based", "key": {"[1]": {"system": "monotropic HIV strain Ba-L", "experiment": "In vitro model c) (standard infection experiment), MO-DC/CD4(+) T cell co-cultures, ELISA for HIV antigens after 14 days", "conditions": "concentration suppressing 50% of viral replication at end of primary culture (14 days), test compound present throughout, MOI 10^-3", "protocol": "Monocyte-derived dendritic cells (MO-DC) were infected for 2 hours with the monotropic HIV strain Ba-L at a multiplicity of infection (MOI) of 10^−3. After infection, cells were washed 6 times and resuspended in 10% BCS at 400.000 cells/ml. Autologous CD4(+) T cells were purified out of the lymphocyte fraction of the same elutration as the MO-DC and used at a concentration of 2×10^6 cells/ml ((ratio MO-DC/CD4(+) T: 1/5).\nA serial dilution of a compound of formula (I) (test compound) was added to the MO-DC/CD4(+) T cell co-cultures. Each experiment was done in 96-well plates, in which each cup contained 50 μl of MO-DC, 50 μl of CD4(+) T cells and 100 μl of test compound. Half of the culture medium, with test compound, was refreshed twice weekly, during 14 days. Supernatants were analysed by ELISA after 14 days of culture for the presence of HIV antigens. To determine antiviral activity, the test compound concentration able to suppress 50% of the viral replication at the end of the primary cultures (EC50) was measured."}, "HIV": {"system": "HIV", "experiment": "HIV replication inhibition test of \"C. Pharmacological example\" of WO 2003/016306", "conditions": "test described in WO 2003/016306", "source_text": "Due to their antiretroviral properties, particularly their anti-HIV properties, especially their anti-HIV-1-activity, the compounds of formula (I), their N-oxides, pharmaceutically acceptable addition salts, quaternary amines and stereochemically isomeric forms thereof, are useful in the treatment of individuals infected by HIV. The HIV replication inhibiting effect of the compounds of formula (I) is described in WO 2003/016306. Compound 255 has a pIC50 value of 9.00 when tested in the test described under the heading “C. Pharmacological example” of WO 2003/016306."}, "[2]": {"system": "MO-DC/CD4(+) T cell co-cultures (MO-DC stimulators, allogenic CD4(+) T cells responders)", "experiment": "Immune suppressive activity in mixed leucocyte culture (MLC), 24 hour assay", "conditions": "test compound present only during first 24 hours of the 5-day culture; read-out: ISC50 (nM) (Test B, 24 hour assay))", "protocol": "The compounds of formula (I) were tested for their immune-suppressive activity (defined as ISC50 value) in a classical MLC in which monocyte-derived dendritic cells (MO-DC) were used as stimulators and allogenic CD4(+) T cells as responders.\n(§1) A dilution series of test compound was added to the MO-DC/CD4(+) T cell co-cultures. After 5 days of culture, 20 μl of [methyl-3H]-Thymidine was added to each well and cultures were harvested after 7 hours. Analysis was done on a Topcount scintillation counter. The immune suppressive concentration (ISC50) is defined as the test compound concentration inhibiting 50% of normal immune proliferation (test compound concentration inhibiting 50% of [methyl-3H]-Thymidine incorporation). (standard MLC assay)\nFor the 24 hour assay, the test compound was only present during the first 24 hours of the 5-day culture period. After 24 hours, the cultures were washed (three times) and culture medium without compound was added. The experimental set-up was from then on similar to the standard MLC assay described above."}, "[3]": {"system": "MO-DC/CD4(+) T cell co-cultures (MO-DC stimulators, allogenic CD4(+) T cells responders)", "experiment": "Immune suppressive activity in mixed leucocyte culture (MLC), standard assay", "conditions": "concentration inhibiting 50% of [methyl-3H]-Thymidine incorporation, 5 days of culture, compound present throughout, read-out: ISC50 (nM) (Test B, standard assay))", "protocol": "as §1, with “The compounds of formula (I) were tested for their immune-suppressive activity (defined as ISC50 value) in a classical MLC in which monocyte-derived dendritic cells (MO-DC) were used as stimulators and allogenic CD4(+) T cells as responders. A dilution” for “A dilution”"}, "HIV strain Ba-L": {"system": "HIV strain Ba-L", "experiment": "In vitro model b) (24 hour infection experiment), MO-DC co-cultured with autologous T4 cells", "protocol": "Monocyte-derived dendritic cells (MO-DC) were co-cultured with autologous T4 cells and infected with HIV strain Ba-L at a multiplicity of infection (MOI) of 10^−3. A serial dilution of test compound was added at the time of infection. After 24 hours, 96-well plates were washed 3 times (test compound and free virus washed away) and medium (without test compound) was added. Half of the medium was refreshed twice a week. Culture supernatants were harvested after 7 and 14 days of culture. After 14 days, cultures were washed 3 times and PHA/IL-2 stimulated PBMC were added for a secondary culture to check for viral rescue. During secondary culture, half of the medium was refreshed twice weekly (IL-2 medium, without test compound). Supernatants were harvested after 1 and 2 weeks of secondary culture. After 2 weeks of secondary culture, cells were also harvested for PCR analysis. Supernatants were analysed in ELISA for the presence of HIV […] during primary and secondary culture."}}}
{"smiles": "Cc1cc(/C=C/C#N)cc(C)c1Oc1ccnc(Nc2ccc(C#N)cc2)n1", "note": "[Compound 255, 4-[[4-[4-(2-cyanoethenyl)-2,6-dimethylphenoxy]-2-pyrimidinyl]amino]benzonitrile (E)]", "values": [{"measurement": "EC50", "setting": "[1]", "value": 0.05, "unit": "nM"}, {"measurement": "pIC50", "setting": "HIV", "value": 9.00}, {"measurement": "IC50", "setting": "[2]", "value": 24600, "unit": "nM"}, {"measurement": "IC50", "setting": "[3]", "value": 20200, "unit": "nM"}, {"measurement": "cups tested positive in ELISA after 7 days of primary culture", "setting": "HIV strain Ba-L; concentrations ranging from 10,000 to 10 nM, 6 cups", "value": "none out of 6"}, {"measurement": "EC50", "setting": "HIV strain Ba-L; test compound added at time of infection and washed away after 24 hours, MOI 10^-3", "value": 2, "unit": "nM"}]}
{"smiles": "Cc1cc(/C=C/c2ccncc2)cc(C)c1Nc1ccnc(Nc2ccc(C#N)cc2)n1", "note": "[Compound 162]", "values": [{"measurement": "EC50", "setting": "[1]; Human immunodeficiency virus 1, BAL, T-cell, 336 h", "value": 5.5, "unit": "nM"}, {"measurement": "IC50", "setting": "[3]; Leucocyte, 120 h", "value": 1140, "unit": "nM"}]}
